Results taken from paper PMC5132298 (PLoS ONE, 2016).
Values after ≈ are worked out from the molar mass of the structure shown.

Assays:
[1] = test system: S. cerevisiae AD2Δ host strain (native ERG11 retained); assay: MIC50 broth microdilution, AD2Δ host strain with native ERG11 retained; type: cell-based, Saccharomyces cerevisiae
Description: (§1) The susceptibility to azole compounds of S. cerevisiae AD3Δ strains overexpressing Erg11p6×His wild type and Y140F/H, but with the native ERG11 deleted, as well as the host strain (AD2Δ) which retained the wild type ERG11 (S2 Table), were measured as MIC50 values (Table 1). […] PTZ has been reported to be a prodrug for DPZ [27]. […] There was a 3.3 fold (0.28 ± 0.02 μM) and a 4.3 fold (1.2 ± 0.2 μM) reduction in susceptibility to S-PTZ in the Y140F and Y140H mutant strains respectively. There was only a 2 fold reduction in susceptibility to R-PTZ in the Y140H mutant strain with no change seen in the Y140F strain. The PTZ metabolite, S-DPZ produced a 4.6 fold (0.073 ± 0.016 μM) and 3 fold (0.048 ± 0.009 μM) reduction is susceptibility against the Y140F and Y140H mutant strains respectively. […] Again we observed 8.3 fold (3.3 ± 0.7 μM) and 4 fold (1.6 ± 0.5 μM) reduction in susceptibility to FQZ in the Y140F and Y140H mutant strains respectively.
(§2) The susceptibilities of strains overexpressing wild type ScErg11p6×His and ScErg11p6×His Y140F/H to CYP51 inhibitors were measured as MIC50 values using broth microdilution assays as described previously.[21] The MIC50s were defined as the concentration of drug required for 50% growth inhibition compared to no drug controls.

[2] = test system: S. cerevisiae AD3Δ overexpressing ScErg11p6×His wild type, native ERG11 deleted; assay: MIC50 broth microdilution, AD3Δ strain overexpressing wild type ScErg11p6×His; type: cell-based, Saccharomyces cerevisiae; details: for fold more active than the R enantiomer (MIC50): S versus R enantiomer, MIC50 values for AD3Δ strains
Description: as §1, §2

[3] = test system: S. cerevisiae AD3Δ overexpressing ScErg11p6×His Y140F, native ERG11 deleted; assay: MIC50 broth microdilution, strain overexpressing ScErg11p6×His Y140F; type: cell-based, Saccharomyces cerevisiae; details: for fold reduction in susceptibility in Y140F mutant strain: MIC50 Y140F strain versus AD3Δ wild type overexpressing strain
Description: as §1, §2

[4] = test system: S. cerevisiae AD3Δ overexpressing ScErg11p6×His Y140H, native ERG11 deleted; assay: MIC50 broth microdilution, strain overexpressing ScErg11p6×His Y140H; type: cell-based, Saccharomyces cerevisiae; details: for fold reduction in susceptibility in Y140H mutant strain: MIC50 Y140H strain versus AD3Δ wild type overexpressing strain
Description: as §1, §2

[5] = target: T1, ScErg11p6×His (S. cerevisiae lanosterol 14α-demethylase) (Saccharomyces cerevisiae, UniProt P10614); assay: Type II binding (difference spectra) to affinity purified ScErg11p6×His; details: for mode of inhibition: ScErg11p6×His; for Induced spectral shift on ligand binding Wavelength: Soret peak, (-) indicates no significant change in Soret peak wavelength; for [Azole]0.5: azole concentration giving half ΔAmax, 1 µM ScErg11p6×His; for type of binding (difference spectra): azole up to 2 μM, 1 μM ScErg11p6×His
T1 construct: Crystal structures of the full length S. cerevisiae lanosterol 14α-demethylase (ScErg11p6×His); 6×His (hexahistidine); made in house; host or cells: Saccharomyces cerevisiae (AD3Δ overexpression strain, native ERG11 deleted)
Description: Type II azole binding is characterised by a shift of the Soret peak from 417 nm to 421–424 nm in ScErg11p6×His and other cytochrome P450s. The type II difference spectra were used to detect and quantitate binding of the inhibitors S-TBZ, R-TBZ, S-PTZ, R-PTZ, S-DPZ, R-DPZ, S-oxo-PTZ and R-oxo-PTZ, FQZ, and PRZ using Ni-NTA affinity purified wild type ScErg11p6×His preparations at 1 μM. Spectral shifts, [Azole]0.5 values, Hill coefficients as well as Type II difference spectra binding curves are shown in S3 Table (selected spectra shown in S2 Fig) and Fig 6, respectively.
Samples of Ni-NTA-agarose affinity purified ScErg11p6×His were eluted with 40 mM histidine instead of imidazole as described by Warrilow et al.. Samples were washed free of the histidine and concentrated by centrifugal filtration using a 50 kDa molecular-weight cut-off Amicon Ultra-4 centrifugal filter (Millipore) to give protein with a Soret peak at 417 nm. Carbon monoxide binding was used to determine the concentration of functional cytochrome P450 for drug binding studies as described previously based on the protocol described by Guengerich et al. Saturation curves for the binding of type II ligands were determined by obtaining difference spectra for functional enzyme at 1 μM as described previously. […] All calculations were carried out using GraphPad Prism 6 Software (GraphPad Prism, San Diego, CA). [Azole]0.5 values were defined as the concentration of the azole drug that gave half ΔAmax.
Hill coefficients and Kd values were obtained by applying the Hill equation as described in Materials and methods. (-) indicates no significant change in Soret peak wavelength on exposure to the ligand. The data presented is a representative set

[6] = AD2Δ host, native ERG11 retained, mean ± standard error
[7] = AD3Δ, ScErg11p6×His overexpressed from PDR5 locus, native ERG11 deleted, mean ± standard error
[8] = Y140F, ScErg11p6×His Y140F overexpressed from PDR5 locus, native ERG11 deleted, mean ± standard error
[9] = Y140H, ScErg11p6×His Y140H overexpressed from PDR5 locus, native ERG11 deleted, mean ± standard error

T1 sequence (P10614 whole entry): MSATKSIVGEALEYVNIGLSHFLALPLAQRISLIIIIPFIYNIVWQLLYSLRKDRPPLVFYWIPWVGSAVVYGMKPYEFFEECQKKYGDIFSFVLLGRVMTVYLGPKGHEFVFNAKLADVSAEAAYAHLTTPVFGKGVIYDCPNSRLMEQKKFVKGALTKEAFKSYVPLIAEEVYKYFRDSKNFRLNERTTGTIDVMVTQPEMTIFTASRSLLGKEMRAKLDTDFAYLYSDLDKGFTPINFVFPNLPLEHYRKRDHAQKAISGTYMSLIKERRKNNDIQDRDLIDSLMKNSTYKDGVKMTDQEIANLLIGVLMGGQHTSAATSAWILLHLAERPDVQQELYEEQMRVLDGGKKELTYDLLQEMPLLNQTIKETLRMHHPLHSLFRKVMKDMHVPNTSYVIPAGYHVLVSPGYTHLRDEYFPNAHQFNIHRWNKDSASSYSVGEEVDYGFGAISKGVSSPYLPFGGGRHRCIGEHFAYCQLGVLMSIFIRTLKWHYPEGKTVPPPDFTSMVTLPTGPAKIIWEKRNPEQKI

Structure (SMILES): CCCN(CCOc1c(Cl)cc(Cl)cc1Cl)C(=O)n1ccnc1 [Prochloraz, prochloraz]
- MIC50 ([1]; Saccharomyces cerevisiae): 0.25 ± 0.02 µM (≈ 0.0942 µg/mL)
- MIC50 ([2]; Saccharomyces cerevisiae): 1.9 ± 0.5 µM (≈ 0.716 µg/mL)
- fold reduction in susceptibility in Y140F mutant strain [3]: 2.3 fold
- MIC50 ([3]; Saccharomyces cerevisiae): 4.3 ± 0.8 µM (≈ 1.62 µg/mL)
- fold reduction in susceptibility in Y140H mutant strain [4]: 3.5 fold
- MIC50 ([4]; Saccharomyces cerevisiae): 6.7 ± 0.7 µM (≈ 2.52 µg/mL)
- Kd [5]: 27 ± 24 nM
- mode of inhibition [5]: non-competitive inhibitors
- Induced spectral shift on ligand binding Wavelength ([5]; listed as PRZ): 417 nm to ~421
- [Azole]0.5 [5]: 0.30 µM
- type of binding (difference spectra) [5]: type II binding

Structure (SMILES): O[C@@](Cc1ccccc1Cl)(Cn1cncn1)C1(Cl)CC1 [S-Prothioconazole-desthio, S-prothioconazole-desthio]
- MIC50 ([1]; Saccharomyces cerevisiae): 0.006 ± 0.001 µM (≈ 0.00187 µg/mL)
- fold more active than the R enantiomer (MIC50) [2]: 200 fold
- MIC50 ([2]; Saccharomyces cerevisiae): 0.0157 ± 0.0003 µM (≈ 0.0049 µg/mL)
- fold reduction in susceptibility in Y140F mutant strain [3]: 4.6 fold
- MIC50 ([3]; Saccharomyces cerevisiae): 0.073 ± 0.016 µM (≈ 0.0228 µg/mL)
- fold reduction in susceptibility in Y140H mutant strain [4]: 3 fold
- MIC50 ([4]; Saccharomyces cerevisiae): 0.048 ± 0.009 µM (≈ 0.015 µg/mL)
- Kd [5]: 102 ± 45 nM
- [Azole]0.5 [5]: 0.42 µM
- type of binding (difference spectra) [5]: type II binding

Structure (SMILES): O=c1[nH]cnn1CC(O)(Cc1ccccc1Cl)C1(Cl)CC1 (stereo not shown) [R-Oxo-prothioconazole, R-oxo-prothioconazole]
- MIC50 [1, 6]: 75.0 ± 3.0 µM (≈ 24.6 µg/mL)
- MIC50 [2, 7]: 80 ± 2 µM (≈ 26.3 µg/mL)
- MIC50 [3, 8]: 87 ± 7 µM (≈ 28.6 µg/mL)
- MIC50 [4, 9]: 95 ± 5 µM (≈ 31.2 µg/mL)
- Induced spectral shift on ligand binding Wavelength [5]: 417(-) nm
- type of binding (difference spectra) [5]: neither type I nor type II binding

Structure (SMILES): CC1COC(Cn2cncn2)(c2ccc(Oc3ccc(Cl)cc3)cc2Cl)O1 (stereo not shown) [Difenoconazole, difenoconazole]
- MIC50 ([1]; Saccharomyces cerevisiae): 0.0147 ± 0.0003 µM (≈ 0.00597 µg/mL)
- MIC50 ([2]; Saccharomyces cerevisiae): 0.047 ± 0.009 µM (≈ 0.0191 µg/mL)
- fold reduction in susceptibility in Y140F mutant strain [3]: 5.2 fold
- MIC50 ([3]; Saccharomyces cerevisiae): 0.243 ± 0.003 µM (≈ 0.0987 µg/mL)
- fold reduction in susceptibility in Y140H mutant strain [4]: 5 fold
- MIC50 ([4]; Saccharomyces cerevisiae): 0.237 ± 0.003 µM (≈ 0.0963 µg/mL)

Structure (SMILES): O=c1[nH]cnn1CC(O)(Cc1ccccc1Cl)C1(Cl)CC1 (stereo not shown) [S-Oxo-prothioconazole, S-oxo-prothioconazole]
- MIC50 [1, 6]: 75.0 ± 0.0 µM (≈ 24.6 µg/mL)
- MIC50 [2, 7]: 84 ± 3 µM (≈ 27.6 µg/mL)
- MIC50 [3, 8]: 87 ± 7 µM (≈ 28.6 µg/mL)
- MIC50 [4, 9]: 97 ± 3 µM (≈ 31.8 µg/mL)
- Induced spectral shift on ligand binding Wavelength [5]: 417(-) nm
- type of binding (difference spectra) [5]: neither type I nor type II binding

Structure (SMILES): CC(C)(C)[C@@](O)(CCc1ccc(Cl)cc1)Cn1cncn1 [S-Tebuconazole, S-tebuconazole]
- MIC50 ([1]; Saccharomyces cerevisiae): 0.0197 ± 0.0003 µM (≈ 0.00606 µg/mL)
- fold more active than the R enantiomer (MIC50) [2]: 15 fold
- MIC50 ([2]; Saccharomyces cerevisiae): 0.073 ± 0.015 µM (≈ 0.0225 µg/mL)
- fold reduction in susceptibility in Y140F mutant strain [3]: 8.7 fold
- MIC50 ([3]; Saccharomyces cerevisiae): 0.64 ± 0.11 µM (≈ 0.197 µg/mL)
- fold reduction in susceptibility in Y140H mutant strain [4]: 11.9 fold
- MIC50 ([4]; Saccharomyces cerevisiae): 0.87 ± 0.06 µM (≈ 0.268 µg/mL)
- Kd [5]: 115 ± 44 nM
- [Azole]0.5 [5]: 0.33 µM
- type of binding (difference spectra) [5]: type II binding

Structure (SMILES): CC(C)(C)C(O)(CCc1ccc(Cl)cc1)Cn1cncn1 (stereo not shown) [TBZ, tebuconazole]
- mode of inhibition [5]: non-competitive inhibitors
- Induced spectral shift on ligand binding Wavelength [5]: 417 nm to ~421

Structure (SMILES): OC(Cc1ccccc1Cl)(Cn1nc[nH]c1=S)C1(Cl)CC1 (stereo not shown) [S-Prothioconazole, S-prothioconazole]
- MIC50 [1, 6]: 0.077 ± 0.003 µM (≈ 0.0265 µg/mL)
- MIC50 [2, 7]: 0.28 ± 0.02 µM (≈ 0.0964 µg/mL)
- fold more active than the R enantiomer (MIC50) [2]: 57 fold
- MIC50 [3, 8]: 0.93 ± 0.0 µM (≈ 0.32 µg/mL)
- fold reduction in susceptibility in Y140H mutant strain ([4]; listed as S-PTZ): 4.3 fold
- MIC50 [4, 9]: 1.2 ± 0.2 µM (≈ 0.413 µg/mL)
- Induced spectral shift on ligand binding Wavelength [5]: 417 (-) nm
